We go through 14 compounds from patent US20110217324A1, “INHIBITORS OF ANTIGEN PRESENTATION BY MHC CLASS II MOLECULES AND METHODS OF USE THEREOF” (priority 2007, published 2011).

The structures appear in SMILES notation. Square brackets hold non-standard residues; d marks the D form. Peptide text beside a SMILES is read from it. Trp(1-Me) = Cn1cc(C[C@H](N)C(=O)O)c2ccccc21; Bta = N[C@@H](Cc1csc2ccccc12)C(=O)O; Tic = O=C(O)[C@@H]1Cc2ccccc2CN1; Cit = NC(=O)NCCC[C@H](N)C(=O)O; Chg = N[C@H](C(=O)O)C1CCCCC1; Pip = O=C(O)[C@@H]1CCCCN1; Abu = CC[C@H](N)C(=O)O; βAla = NCCC(=O)O; Sar = CNCC(=O)O

This test addresses T1, MHC DR2 (DRB1*1501/DRA*0101) (Homo sapiens, UniProt P01903+P01911).
T1 construct: endogenous in cells; host or cells: EBV homozygous (B lymphoblastoid) cell lines
In words: HLA II Binding Assay (competition with biotinylated reference peptide). Conditions: purified HLA-DR, biotinylated reference compound for DRB1*1501, 37° C. 24 h to 72 h; read-out: Inhibition of peptide binding IC50 (against MHC DR2 (DRB1*1501/DRA*0101)). The method, then:
EBV homozygous cell lines are used as sources of human HLA class II molecules. […] The supernatant from lysed cells after centrifugation (100,000 g for 1 h) is applied to Sepharose 4B and protein A-Sepharose 4B columns and then to the specific antibody column. […] Fractions are immediately neutralized to pH 7 with 2 mM Tris-HCl (pH 6.8) and extensively dialyzed against 1 mM n-dodecyl β-D-maltoside, 150 mM NaCl, 10 mM phosphate (pH 7) buffer.
Samples (100 μl per well) are incubated in 96-wells polypropylene plates at 37° C. for 24 h to 72 h. After neutralization with 50 μl of 450 mM Tris HCl pH 7.5, 0.003% thimerosal, 0.3% BSA, 1 mM n-dodecyl β-D-maltoside buffer, samples are applied to 96-well maxisorp ELISA plates previously coated with 10 μg/ml L243 Mab and saturated with 100 mM Tris HCl pH=7.5, 0.3% BSA, and 0.003% thimerosal buffer. Samples are allowed to bind to the antibody-coated plates for 2 h at room temperature. Bound biotinylated compound is detected by incubating streptavidin-alkaline phosphatase conjugate, and after washings, by the addition of 4-methylumbelliferyl phosphate substrate. […] Maximal binding is determined by incubating the biotinylated peptide with the MHC class II molecule in the absence of competitor. Binding specificity is assessed by adding an excess of non-biotinylated peptide.
For `CC[C@H](N)C(=O)N[C@H](C(=O)N[C@H](C(=O)N[C@@H](CCCNC(N)=O)C(=O)N1Cc2ccccc2C[C@H]1C(=O)N[C@@H](Cc1ccccc1)C(N)=O)C1CCCCC1)C(C)C` [(NH2-Abu)V(Chg)(Cit)(Tic)F] (H-[Abu]V[Chg][Cit][Tic]F-NH2), the IC50 lay in the range of 1 to 10 nM. For `CC[C@H](N)C(=O)N[C@H](C(=O)N[C@H](C(=O)N[C@@H](CCCNC(=N)N)C(=O)N1Cc2ccccc2C[C@H]1C(=O)N[C@@H](Cc1ccccc1)C(N)=O)C1CCCCC1)C(C)C` [(NH2-Abu)V(Chg)R(Tic)F] (H-[Abu]V[Chg]R[Tic]F-NH2) the value was 1 to 10 nM. In the case of `CC(C)[C@H](NC(=O)[C@@H](N)Cc1csc2ccccc12)C(=O)N[C@H](C(=O)N[C@@H](CCCNC(=N)N)C(=O)N1Cc2ccccc2C[C@H]1C(=O)N[C@@H](Cc1ccccc1)C(N)=O)C1CCCCC1` [(NH2-BTA)V(Chg)R(Tic)F] (H-[Bta]V[Chg]R[Tic]F-NH2) it was 10 to 100 nM; in that of `CC(C)[C@H](NC(=O)CCN)C(=O)N[C@H](C(=O)N[C@@H](CCCNC(N)=O)C(=O)N1Cc2ccccc2C[C@H]1C(=O)N[C@@H](Cc1ccccc1)C(N)=O)C1CCCCC1` [(NH2-Beta Ala)V(Chg)(Cit)(Tic)F] (H-[βAla]V[Chg][Cit][Tic]F-NH2), 1 to 10 nM; in that of `CC(C)[C@H](NC(=O)CCN)C(=O)N[C@H](C(=O)N[C@@H](Cc1ccccc1)C(=O)N[C@@H](Cc1ccccc1)C(=O)N[C@@H](Cc1ccccc1)C(N)=O)C1CCCCC1` [(NH2-Beta Ala)V(Chg)FFF] (H-[βAla]V[Chg]FFF-NH2), 100 to 1000 nM.

As to `CC(C)[C@H](NC(=O)CCN)C(=O)N[C@H](C(=O)N[C@@H](CCCNC(=N)N)C(=O)N1Cc2ccccc2C[C@H]1C(=O)N[C@@H](Cc1ccccc1)C(N)=O)C1CCCCC1` [(NH2-Beta Ala)V(Chg)R(Tic)F] (H-[βAla]V[Chg]R[Tic]F-NH2), the IC50 is 1 to 10 nM. In the case of `CC(C)[C@H](NC(=O)CN)C(=O)N[C@H](C(=O)N[C@@H](CCCNC(N)=O)C(=O)N1Cc2ccccc2C[C@H]1C(=O)N[C@@H](Cc1ccccc1)C(N)=O)C1CCCCC1` [(NH2-Gly)V(Chg)(Cit)(Tic)F] (H-GV[Chg][Cit][Tic]F-NH2) it was 1 to 10 nM; in that of `CC(C)[C@H](NC(=O)CN)C(=O)N[C@H](C(=O)N[C@@H](CCCNC(=N)N)C(=O)N1Cc2ccccc2C[C@H]1C(=O)N[C@@H](Cc1ccccc1)C(N)=O)C1CCCCC1` [(NH2-Gly)V(Chg)R(Tic)F] (H-GV[Chg]R[Tic]F-NH2), 1 to 10 nM. In the case of `CNCC(=O)N[C@H](C(=O)N[C@H](C(=O)N[C@@H](CCCNC(N)=O)C(=O)N1Cc2ccccc2C[C@H]1C(=O)N[C@@H](Cc1ccccc1)C(N)=O)C1CCCCC1)C(C)C` [(NH2-Sar)V(Chg)(Cit)(Tic)F] (H-[Sar]V[Chg][Cit][Tic]F-NH2) it was 1 to 10 nM; in that of `CNCC(=O)N[C@H](C(=O)N[C@H](C(=O)N[C@@H](CCCNC(=N)N)C(=O)N1Cc2ccccc2C[C@H]1C(=O)N[C@@H](Cc1ccccc1)C(N)=O)C1CCCCC1)C(C)C` [(NH2-Sar)V(Chg)R(Tic)F] (H-[Sar]V[Chg]R[Tic]F-NH2), 1 to 10 nM. In the case of `CC(=O)N[C@H](C(=O)N[C@@H](CCCNC(=N)N)C(=O)N1Cc2ccccc2C[C@H]1C(=O)N[C@@H](Cc1cn(C)c2ccccc12)C(N)=O)C1CCCCC1` [Ac(Chg)R(Tic)(1-Me-Trp)] (Ac-[Chg]R[Tic][Trp(1-Me)]-NH2) it was 100 to 1000 nM; in that of `CC(=O)N[C@H](C(=O)N[C@@H](CCCNC(=N)N)C(=O)N1Cc2ccccc2C[C@H]1C(=O)N[C@@H](Cc1c[nH]c2ccccc12)C(N)=O)C1CCCCC1` [Ac(Chg)R(Tic)(Trp)] (Ac-[Chg]R[Tic]W-NH2), 10 to 100 nM. On to `CC(=O)N[C@H](C(=O)N[C@@H](CCCNC(=N)N)C(=O)N1Cc2ccccc2C[C@H]1C(=O)NC(Cc1cccc2[nH]ccc12)C(N)=O)C1CCCCC1` (some centres unmarked) [Ac(Chg)R(Tic)-(4′-Indolyl Ala)], for which the IC50 lay within 10 to 100 nM. In the case of `CC(=O)N[C@H](C(=O)N[C@@H](CCCNC(=N)N)C(=O)N1CCCC[C@H]1C(=O)N[C@@H](Cc1ccccc1)C(=O)N1CCCC[C@H]1C(N)=O)C1CCCCC1` [Ac(Chg)R(homo Pro)F(homo Pro)] (Ac-[Chg]R[Pip]F[Pip]-NH2) it was 100 to 1000 nM.
